Publication PMC2737586 (Chemistry & biology, 2009)

What was measured:
Type in all cases: biochemical
[1] = biological target: C-terminal half of ValD (Streptomyces hygroscopicus, UniProt Q1L2K7); experiment: in vitro epimerase assay
[2] = biological target: ValD (Streptomyces hygroscopicus, UniProt Q1L2K7, H130N); experiment: TLC of epimerization, relative activity; conditions: TLC after 30 min
[3] = biological target: ValD (Streptomyces hygroscopicus, UniProt Q1L2K7, E183A); experiment: TLC and 1H NMR of epimerization, relative activity; conditions: TLC after 30 min
[4] = biological target: ValD (Streptomyces hygroscopicus, UniProt Q1L2K7, H315N); experiment: TLC of epimerization, relative activity; conditions: TLC after 30 min
[5] = biological target: ValD (Streptomyces hygroscopicus, UniProt Q1L2K7, E107A); experiment: TLC of epimerization, relative activity; conditions: TLC after 30 min
[6] = biological target: ValD (Streptomyces hygroscopicus, UniProt Q1L2K7, E291A); experiment: TLC of epimerization, relative activity; conditions: TLC after 30 min
[7] = biological target: ValD (Streptomyces hygroscopicus, UniProt Q1L2K7, H44N); experiment: TLC and 1H NMR of epimerization, relative activity; conditions: TLC after 30 min
[8] = biological target: N-terminal half of ValD (Streptomyces hygroscopicus, UniProt Q1L2K7); experiment: in vitro epimerase assay
[9] = biological target: ValD (Streptomyces hygroscopicus, UniProt Q1L2K7, H229N); experiment: TLC and 1H NMR of epimerization, relative activity; conditions: TLC after 30 min
[10] = biological target: ValD (Streptomyces hygroscopicus, UniProt Q1L2K7, E366A); experiment: TLC and 1H NMR of epimerization, relative activity; conditions: TLC after 30 min

In the case of `O=C1C[C@@](O)(CO)[C@@H](O)[C@H](O)[C@@H]1O` [2-epi-5-epi-valiolone], the “in vitro epimerase assay (data not shown)” value [1] is reported as “truncated proteins have a significantly reduced capacity to convert 2-epi-5-epi-valiolone to 5-epi-valiolone (data not shown)”, the “TLC of epimerization, relative activity” value [2] is reported as “H130N, E183A, H229N, and E291A proteins had a comparable epimerase activity” and the “TLC and 1H NMR of epimerization, relative activity” value (“TLC and 1H NMR … relative activity” for short) [3] is reported as “H130N, E183A, H229N, and E291A proteins had a comparable epimerase activity”. For the same molecule, the “TLC of epimerization, relative activity” value [4] was “Mutation at H315 appeared to have moderate effect on the epimerase activity”, the “TLC of epimerization, relative activity” value [5] was “H44N, E107A, and E366A proteins had significantly reduced activities” and the “TLC of epimerization, relative activity” value [6] was “H130N, E183A, H229N, and E291A proteins had a comparable epimerase activity”. The “TLC and 1H NMR … relative activity” value [7] was “H44N, E107A, and E366A proteins had significantly reduced activities”, the “in vitro epimerase assay (data not shown)” value [8] was “truncated proteins have a significantly reduced capacity to convert 2-epi-5-epi-valiolone to 5-epi-valiolone (data not shown)” and the “TLC and 1H NMR … relative activity” value [9] was “H130N, E183A, H229N, and E291A proteins had a comparable epimerase activity”. The “TLC and 1H NMR … relative activity” value [10] was “H44N, E107A, and E366A proteins had significantly reduced activities”.
